Laboratory results taken from patent US4549023A, “3-Aminoindazole derivatives” (priority 1980, dated 1985).
Where two headings read alike, the source gives them in different places.

Legend:
[1] = system: carrageenin edema in rat's paw; experiment: Carrageenin Edema Test in Rat's Paw (anti-inflammatory activity); format: in vivo, Female Wistar rats; settings: for inhibition in vivo at 100 mg/kg: Rattus norvegicus, hydrochloric acid salts; for Inhibition values compared with comparative compounds: Table 1, 100 mg/kg
Procedure: A standard method of Carrageenin Edema Test in Rat's Paw described in C. A. Winter et al., Proc. Soc. Exp. Biol. Med., 111, 544 (1962) was employed.
[…] One hour later, the pad of a hind paw of the rat was injected with 0.1 ml of 1% aqueous carrageenin solution. The volume of the paw was measured both before the injection of carrageenin and three hours after the injection.
The edema inhibition percentage of the test compound was calculated from the ratio of the increase in the volume of the affected paw of the test animals to the increase in the volume of the affected paw of the controls.
The anti-inflammatory activity of the 3-aminoindazole derivative hydrochloric acid salts of this invention was measured.
The anti-inflammatory activity of the 3-aminoindazole derivative hydrochloric acid salts obtained by Examples 1-49 of this invention was measured by the standard method of carrageenin edema test. In these tests, the amount of the administration of the salts was 100 mg/kg. The results are shown in Table 17 (Inhibition (%) was measured three hours after the injection).

[2] = system: carrageenin-inflamed hind paw of the rat (pressure pain); experiment: Randall-Selitto Test (analgesic activity); format: in vivo, Female wister rats; settings: for Analgesic Coefficient, Table 18: 100 mg/kg, hydrochloric acid salts; for Analgesic Coefficient, Table 18 / Analgesic coefficient: water 0.8; for Analgesic coefficient: Randall-Selitto, oral, 50 mg/kg per method; for Analgesic activity by the Randall-Selitto test: rat, in vivo
Procedure: The Randall-Selitto analgesic activity test was carried out according to the general method described in J. O. Randall & J. J. Selitto, Arch. Int. Pharmacodyn, 111, 409 (1957). Female wister rats weighing 120-150 g were orally administered 50 mg/kg of the test compound as an aqueous solution. Thirty minutes later, the pad of a hind paw of the rat was injected with 0.1 ml of 1% aqueous carrageenin solution. Pressure was applied to the paw where edema was formed by Balance-type Pressure Device (Ugo Basile Company; Italy) 1, 2, 3 and 4 hours after the injection. The weight when the test animals began to struggle with pain was measured. The analgesic activity is represented by an analgesic coefficient which is obtained by dividing the average weight measured 1.5, 2.5, 3.5 and 4.5 hours after the administration by the applied weight prior to the administration.
The analgesic activity of the 3-aminoindazole derivative hydrochloric acid salts obtained by Examples 2, 6, 10, 18, 22 and 28 of this invention was measured by the standard method of Randall-Selitto test. In these tests, the amount of the administration of the salts was 100 mg/kg.

[3] = Acute toxicity (LD50), intravenous injection; settings: mouse, in vivo, male ddY-strain mice, read-out: LD50, Table 19
Procedure: Acute toxicity was measured by an ordinary method described in Finney DJ Probit Analysis Cambridge University Press 48, (1952). Ddy mice weighing about 18 g on average, each group consisting of 10 animals, were […] injected with the physiological salt solution containing the test compound. The amount of the test compound administered was varied in 5-8 groups. Three days after the administration, dead animals were counted in each group. The amount of the test compound killing half the number of the animals (LD50) was calculated from the results.
The acute toxicity of the 3-aminoindazole derivatives and their hydrochloric acid salts obtained by Examples 1-49 of this invention was measured by giving male ddY-strain mice an intravenous injection.

[4] = system: gastric ulcer in rats; experiment: Anti-Ulcer Test: occurrence of gastric ulcer by test compound alone; format: in vivo, Male donryu rats
Procedure: Ulcer inhibition of 3-(3-diethylaminopropylamino)indazole (10) and 1-(3-piperidinopropyl)-3-aminoindazole (18), typical and preferred compounds of this invention, was measured.

[5] = system: gastric ulcer caused by indomethacin; settings: for Ulcer index: rat, in vivo
Procedure: The test compound was suspended in 1% HCO-60 (trade name for polyoxyethylene hydrogenated castor oil; a product of Nikko Chemical Co., Ltd., Japan) at the concentration of 10 mg/ml. Male donryu rats weighing 150-160 g were orally administered 100 mg/kg of the test compound. The occurrence of gastric ulcer was examined 24 hours after the administration.
It is well known that the single use of acidic non-steroidal anti-inflammatory drugs causes a side effect in digestive tracts such as gastric ulcer.

[6] = system: acetic acid-induced writhing in mice; experiment: Acetic Acid-Writhing Test (analgesic activity); format: in vivo, Male ddy-strain mice; settings: 100 mg/kg, oral, hydrochloric acid salts
Procedure: Acetic acid-writhing test was carried out according to Koster et al., Fed. Proc., 18, 412 (1959). […] Thirty minutes later, the mice were intraperitoneally injected with 0.1 ml/10 g of 0.7% acetic acid physiological salt solution as a stimulant. Ten minutes after the stimulant injection, writhing frequency as pain response was observed and recorded over 10 minutes.
The inhibition percentage of the test compound was represented as the ratio of the inhibition of the writhing frequency.
Analgesic activity of 3-aminoindazole derivative hydrochloric acid salts was measured by acetic acid-writhing test.

[7] = system: primary inflammation; settings: Silvest et al., Arzneim-Forsch, 16, 59 (1966); cited from earlier work
[8] = po, 3 h, 100 mg/kg, measured three hours after the injection, read-out: Inhibition (carrageenin edema), Table 17
[9] = 100 mg/kg, oral, 3 h after carrageenin, read-out: Inhibition (carrageenin edema), Table 1
[10] = 100 mg/kg singly administered at one time, oral
[11] = 100 mg/kg compound together with 20 mg/kg of indomethacin
[12] = 100 mg/kg compound together with 10 mg/kg of indomethacin

| Compound | inhibition in vivo at 100 mg/kg [1, 8] [%] | inhibition in vivo at 100 mg/kg [1, 9] [%] | Inhibition values compared with comparative compounds [1] | Analgesic Coefficient, Table 18 [2] | LD50 at 72 h [3] [mg/kg] | Inhibition (acetic acid-writhing), Table 3 [6] [%] | other results |
| --- | --- | --- | --- | --- | --- | --- | --- |
| CCN(CC)CCCNc1n[nH]c2ccccc12 [Compound (10), 3-(3-diethylaminopropylamino)indazole] | 66 | 66 | higher than that of the compound C-1 | 1.31 | 233 | – | Gastric ulcer occurrence [4, 10]: Gastric ulcer did not occur; Occurrence frequency in combination [5, 11]: not changed; Ulcer index in combination [5, 11]: 14.9 mm |
| CC1CCCCN1CCCNc1n[nH]c2ccccc12 (stereo not shown) [Compound (6), 3-{3-(2-methylpiperidino)propylamino}indazole] | 67 | 67 | higher than that of the compound C-1 | 1.11 | 91 | 49 | Inhibition (carrageenin edema), Table 2 ([1]; 25 mg/kg, oral): 40%; Inhibition (carrageenin edema), Table 2 ([1]; 50 mg/kg, oral): 53%; Inhibition (carrageenin edema), Table 2 ([1]; 100 mg/kg, oral): 67%; Analgesic coefficient [2]: 1.11; Analgesic activity by the Randall-Selitto test [2]: potent analgesic activity |
| COc1ccc2c(c1)c(CC(=O)O)c(C)n2C(=O)c1ccc(Cl)cc1 [indomethacin, reference compound] | – | – | – | – | – | – | Ulcer index ([5]; 10 mg/kg): 10.2 mm; Ulcer index ([5]; 20 mg/kg): 34.3 mm |
| c1ccc2c(NCCCN3CCCCC3)n[nH]c2c1 [Compound (2), 3-(3-piperidinopropylamino)indazole] | 55 | 55 | higher than that of the compound C-1 | 0.98 | 101 | 53 | – |
| Nc1nn(-c2ccccc2)c2ccccc12 [Compound C-7, 1-phenyl-3-aminoindazole, reference compound] | – | – | – | – | – | 17 | – |
| CN(C)CCCOc1nn(Cc2ccccc2)c2ccccc12 [Compound C-4, 1-benzyl-3-(3-dimethylaminopropoxy)indazole, reference compound] | – | – | – | – | – | – | Inhibition (carrageenin edema), Table 2 ([1]; 25 mg/kg, oral): 8%; Inhibition (carrageenin edema), Table 2 ([1]; 50 mg/kg, oral): 20%; Inhibition (carrageenin edema), Table 2 ([1]; 100 mg/kg, oral): 51%; Effect against primary inflammation [7]: effective against primary inflammation |
| Nc1nn(CCCN2CCCCC2)c2ccccc12 [Compound (18), 1-(3-piperidinopropyl)-3-aminoindazole] | 54 | 54 | higher than those of the compounds C-2 and C-3 | 1.38 | 102 | 43 | Gastric ulcer occurrence [4, 10]: Gastric ulcer did not occur; Gastric ulcer occurrence ([4]; administered for 5 days): gastric ulcer did not occur; Occurrence frequency in combination [5, 12]: not changed; Ulcer index in combination [5, 12]: 2.5 mm |
| CN(C)CCCNc1nn(-c2ccccc2)c2ccccc12 [Compound C-6, 1-phenyl-3-(3-dimethylaminopropylamino)indazole, reference compound] | – | – | – | – | – | 0 | – |
| CN(C)CCn1nc(N)c2ccccc21 [Compound (28), 1-(2-dimethylaminoethyl)-3-aminoindazole] | 44 | 44 | higher than those of the compounds C-2 and C-3 | 0.96 | 343 | – | – |
| Nc1nn(CCCN2CCC(O)CC2)c2ccccc12 [Compound (24), 1-{3-(4-hydroxypiperidino)propyl}-3-aminoindazole] | 46 | – | – | – | 367 | – | – |
| CC1CCCC(C)N1CCCNc1n[nH]c2ccccc12 (stereo not shown) [Compound (7), 3-{3-(2,6-dimethylpiperidino)propylamino}indazole] | 35 | – | – | – | 143 | – | – |
| CC1CCCCN1CCCn1nc(N)c2ccccc21 (stereo not shown) [Compound (22), 1-{3-(2-methylpiperidino)propyl}-3-aminoindazole] | 51 | 51 | higher than those of the compounds C-2 and C-3 | 1.05 | 102 | 31 | Inhibition (carrageenin edema), Table 2 ([1]; 25 mg/kg, oral): 29%; Inhibition (carrageenin edema), Table 2 ([1]; 50 mg/kg, oral): 33%; Inhibition (carrageenin edema), Table 2 ([1]; 100 mg/kg, oral): 51%; Analgesic coefficient [2]: 1.05; Analgesic activity by the Randall-Selitto test [2]: potent analgesic activity |
| CC(CCn1nc(NCCC(C)N2CCCCC2)c2ccccc21)N(C)C (stereo not shown) [Compound (48), 1-(3-dimethylaminobutyl)-3-(3-piperidinobutylamino)indazole] | 27 | – | – | – | 213 | – | – |
| CC(CCNc1n[nH]c2ccccc12)N1CCCCC1 (stereo not shown) [Compound (14), 3-(3-piperidinobutylamino)indazole] | 55 | – | – | – | 95 | – | – |
| c1ccc2c(NCCCN3CCCC3)n[nH]c2c1 [Compound (4), 3-(3-pyrrolidinopropylamino)indazole] | 30 | 30 | higher than that of the compound C-1 | – | 97 | – | – |
| CC(CCNc1nn(CCCN2CCCCC2)c2ccccc12)N1CCCCC1 (stereo not shown) [Compound (41), 1-(3-piperidinopropyl)-3-(3-piperidinobutylamino)indazole] | 28 | – | – | – | 99 | – | – |
